Results on 1 molecule are retold here after US20130115624A1, “Methods To Identify Modulators” (Givaudan S.A., priority 2010, published 2013).

Where two headings read alike, the source gives them in different places.

In the experiment the test system is Sham Transfected HEK293T/G16gust44 cells. The protocol: HEK293T/G16gust44 cells were used; they were formed as described in WO 2004/055048. The host cell line HEK-293T is commercially available from the American Tissue Culture Collection (ATCC), ATCC®#CRL-11268.
On day 0, the HEK293T/G16gust44 cells were plated in 96-well black wall, clear-bottom plates at a density of 15,000 cells per well and grown overnight in growth media (Dulbecco's modified Eagle's medium (DMEM) with 10% (v/v) heat-inactivated fetal bovine serum, 2 mM L-glutamine, 100 units/ml penicillin, 100 μg/ml streptomycin).
On day 1, the media was changed to an antibiotic-free and serum-free DMEM, and the cells were transfected with Lipofectamine 2000 (Invitorgen) according to the manufacturer's recommendations.
Per well of a 96-well plate, 150 ng of vector DNA (TAS2R41 expression vectors from example 1) was diluted in 12.5 μl of DMEM. In a second tube, 0.3 μl of Lipofectamine 2000 was diluted in 12.5 μl of DMEM and incubated for 5 min at room temperature. After the 5 min, both solutions were mixed and incubated for 20 min at RT.
The growth medium in the plate was exchanged with 50 μl of DMEM and 25 μl of the lipofectamine/DNA mixture (formed in the step above) and the cells were incubated for a further 3-4 hours at 37° in a humidified atmosphere. This mixture was then replaced with an antibiotic-free, serum-containing DMEM.
The above procedure was also carried out for HEK293T/G16gust44 cells formed as described in WO 2004/055048 with the exception that no DNA was added during the process (these cells are termed Sham transfected cells);
Each sample (receptors as well as controls) contained a final concentration of 0.02% Dimethyl sulphoxide (DMSO) to allow for comparability of all examples below.
On day 0, the HEK293T cells formed as described in example 2, were seeded in antibiotic-free growth medium (standard DMEM with 10% (v/v) heat-inactivated fetal bovine serum, 2 mM L-glutamine […]) into black wall/clear bottom 96-well plates, coated with poly(ethylenimine) (0.005% v/v) at a concentration of 15,000 cells per well and incubated for 48 hours in humidified atmosphere (37° C., 5% CO2).
Prior to performing the assay, the growth medium was discarded and the cells were left in a humidified atmosphere (37° C., 5% CO2) for 1 hour with 50 μl of loading buffer consisting of 1.5 μM Fluo-4 AM and […] probenicid (Sigma-Aldrich, St. Louis, Mo., US) in DMEM.
Following this the 96-well plate was washed 5 times with 100 μl of assay buffer (130 mM NaCl, 5 mM KCl, 10 mM 4-(2-hydroxyethyl)-1-piperazineethanesulfonic acid (HEPES), 2 mM CaCl2, and 5 mM dextrose, pH 7.4) per well, using an automated plate washer (BioTek).
The plate was then further incubated for 30 minutes at room temperature in the dark to allow for complete de-esterification of the Fluo-4. Afterwards the plate was washed 5 times with 100 μl of assay buffer per well, and reconstituted with 100 μl of assay buffer per well.
Cyclamate solutions ranging in concentration from 250 mM to 800 mM were prepared in assay buffer.
To test receptor activation 20 μl of one of these cyclamate test solutions was added to the assay buffer of at least one well of the 96 well plate. This step was repeated until all cyclamate solutions of differing concentrations had been added to at least one well. Care was taken to ensure that only one cyclamate solution was added per well. The resulting cyclamate concentrations in the well plates ranged in concentration from 25 mM to 80 mM (This is due to the dilution of the cyclamate solution in the assay buffer present in the well).
For assay reading, the plate was placed in a Fluorometric Imaging Plate Reader (FLIPR) (FLIPR-TETRA™, Molecular Devices, Sunnyvale, Calif., US).

Take `O=S(=O)(O)NC1CCCCC1` [Cyclamate, cyclamate]: the “Cyclamate Average ΔF/F0” value is on record as 0.1588 (25 mM cyclamate in well); 0.1665 (30 mM cyclamate in well); 0.1676 (35 mM cyclamate in well); 0.1718 (40 mM cyclamate in well); 0.1765 (45 mM cyclamate in well); 0.1676 (50 mM cyclamate in well). The “Cyclamate Average ΔF/F0” value runs as follows: (55 mM cyclamate in well) 0.1682; (60 mM cyclamate in well) 0.1453; (65 mM cyclamate in well) 0.1382; (70 mM cyclamate in well) 0.1529; (75 mM cyclamate in well) 0.1329; (80 mM cyclamate in well) 0.1465.
